Test results from ChEMBL document CHEMBL4602729, “O-Alkyl Hydroxamates Display Potent and Selective Antileishmanial Activity” (J Med Chem, 2020).
pIC50: −log10 of the molar value.

What was measured:
[1] = Cytotoxicity against Swiss mouse BMDM assessed as reduction in cell viability measured after 72 hrs by tryphan blue assay; format: cell-based; conditions: Swiss, BMDM
[2] = Toxicity in BALB/c mouse infected with Leishmania infantum MON-1 promastigotes assessed as enzymatic alteration in serum at 10 to 25 mg/kg, ip administered daily for 14 days starting from 28 days post infection using gold nanoparticle incorporated compound; format: organism-based; conditions: in vivo
Leishmania infantum [3] = test: Antileishmanial activity against Leishmania infantum MON-1 promastigotes infected in BALB/c mouse assessed as reduction in liver parasite load at 25 mg/kg, ip administered daily for 14 days starting from 28 days post infection using gold nanoparticle incorporated compound measured post last dose by Taqman qRT-PCR analysis relative to control; format: functional; parameters: scale not given: the % may be the effect or the level left
[4] = Drug metabolism in human liver microsomes assessed as vorinostat formation at 1 uM measured up to 60 mins by LC-MS/MS analysis; format: ADME, Microsome; conditions: 1 h
[5] = Mutagenicity in Salmonella typhimurium TA98 at 10 to 75 uM measured after 5 days in absence of S9 fraction by Ames test; format: toxicity; conditions: salmonella enterica subsp. enterica serovar typhimurium, s9, 120 h
Leishmania infantum [6] = test: Antileishmanial activity against Leishmania infantum MON-1 promastigotes infected in BALB/c mouse assessed as reduction in spleen parasite load at 5 mg/kg, ip administered daily for 14 days starting from 28 days post infection using gold nanoparticle incorporated compound measured post last dose in presence of meglumine antimoniate by Taqman qRT-PCR analysis relative to control; format: functional; parameters: scale not given: the % may be the effect or the level left
[7] = Toxicity in BALB/c mouse infected with Leishmania infantum MON-1 promastigotes assessed as enzymatic alteration in serum at 10 to 25 mg/kg, ip administered daily for 14 days starting from 28 days post infection using PLGA nanoparticle incorporated compound; format: organism-based; conditions: in vivo
[8] = Toxicity in BALB/c mouse infected with Leishmania infantum MON-1 promastigotes assessed as biochemical alteration in plasma at 10 to 25 mg/kg, ip administered daily for 14 days starting from 28 days post infection using gold nanoparticle incorporated compound; format: organism-based; conditions: in vivo
[9] = Solubility of the compound in water; format: physicochemical
[10] = Toxicity in BALB/c mouse infected with Leishmania infantum MON-1 promastigotes assessed as biochemical alteration in plasma at 10 to 25 mg/kg, ip administered daily for 14 days starting from 28 days post infection using PLGA nanoparticle incorporated compound; format: organism-based; conditions: in vivo
[11] = Toxicity in BALB/c mouse infected with Leishmania infantum MON-1 promastigotes assessed as histological changes at 10 to 25 mg/kg, ip administered daily for 14 days starting from 28 days post infection using gold nanoparticle incorporated compound; format: organism-based; conditions: in vivo
Leishmania infantum [12] = test: Antileishmanial activity against Leishmania infantum MON-1 intracellular amastigotes infected in Swiss mouse BMDM assessed as reduction in parasite load at 14.3 uM measured after 48 hrs using gold nanoparticle incorporated compound by Giemsa staining based optical microscopic analysis relative to control; format: functional; parameters: scale not given: the % may be the effect or the level left
[13] = Drug metabolism in human liver microsomes assessed as compound 12 formation at 1 uM measured after 30 mins by LC-MS/MS analysis; format: ADME, Microsome; conditions: 0.5 h
Leishmania major = test: Antileishmanial activity against Leishmania major MON-4 intracellular amastigotes; format: functional, organism-based; conditions: Leishmania major, MON-4
[14] = Toxicity in BALB/c mouse infected with Leishmania infantum MON-1 promastigotes at 5 to 10 mg/kg, ip administered daily for 14 days starting from 28 days post infection using gold nanoparticle incorporated compound in presence of meglumine antimoniate; format: organism-based; conditions: in vivo
[15] = Mutagenicity in Salmonella typhimurium TA100 at 10 to 75 uM measured after 5 days in absence of S9 fraction by Ames test; format: toxicity; conditions: salmonella enterica subsp. enterica serovar typhimurium, s9, 120 h
[16] = Toxicity in BALB/c mouse infected with Leishmania infantum MON-1 promastigotes assessed as swelling of spleen at 10 to 25 mg/kg, ip administered daily for 14 days starting from 28 days post infection using PLGA nanoparticle incorporated compound; format: organism-based; conditions: in vivo
[17] = Mutagenicity in Salmonella typhimurium TA100 at 10 to 75 uM measured after 5 days in presence of S9 fraction by Ames test; format: toxicity, subcellular; conditions: salmonella enterica subsp. enterica serovar typhimurium, s9, 120 h
[18] = Toxicity in BALB/c mouse infected with Leishmania infantum MON-1 promastigotes assessed as swelling of kidney at 10 to 25 mg/kg, ip administered daily for 14 days starting from 28 days post infection using gold nanoparticle incorporated compound; format: organism-based; conditions: in vivo
Leishmania infantum [19] = test: Antileishmanial activity against Leishmania infantum MON-1 promastigotes infected in BALB/c mouse assessed as reduction in spleen parasite load at 10 mg/kg, ip administered daily for 14 days starting from 28 days post infection using gold nanoparticle incorporated compound measured post last dose in presence of meglumine antimoniate by Taqman qRT-PCR analysis relative to control; format: functional; parameters: scale not given: the % may be the effect or the level left
[20] = Toxicity in BALB/c mouse infected with Leishmania infantum MON-1 promastigotes assessed as weight loss at 10 to 25 mg/kg, ip administered daily for 14 days starting from 28 days post infection using PLGA nanoparticle incorporated compound; format: organism-based; conditions: in vivo
[21] = Toxicity in BALB/c mouse infected with Leishmania infantum MON-1 promastigotes assessed as swelling of spleen at 10 to 25 mg/kg, ip administered daily for 14 days starting from 28 days post infection using gold nanoparticle incorporated compound; format: organism-based; conditions: in vivo
[22] = Drug metabolism in human liver microsomes assessed as compound 13 formation at 1 uM measured after 30 mins by LC-MS/MS analysis; format: ADME, Microsome; conditions: 0.5 h
Leishmania infantum [23] = test: Antileishmanial activity against Leishmania infantum MON-1 promastigotes infected in BALB/c mouse assessed as reduction in liver parasite load at 10 mg/kg, ip administered daily for 14 days starting from 28 days post infection using gold nanoparticle incorporated compound measured post last dose in presence of meglumine antimoniate by Taqman qRT-PCR analysis relative to control; format: functional; parameters: scale not given: the % may be the effect or the level left
Cytochrome P450 2D6 = Cytochrome P450 2D6 (Homo sapiens, UniProt P10635); test: Inhibition of CYP2D6 in human liver microsomes using dextromethorphan as substrate measured after 30 mins by LC-MS/MS analysis; format: ADME
Chain of Cytochrome P450 2D6 (P10635 whole entry): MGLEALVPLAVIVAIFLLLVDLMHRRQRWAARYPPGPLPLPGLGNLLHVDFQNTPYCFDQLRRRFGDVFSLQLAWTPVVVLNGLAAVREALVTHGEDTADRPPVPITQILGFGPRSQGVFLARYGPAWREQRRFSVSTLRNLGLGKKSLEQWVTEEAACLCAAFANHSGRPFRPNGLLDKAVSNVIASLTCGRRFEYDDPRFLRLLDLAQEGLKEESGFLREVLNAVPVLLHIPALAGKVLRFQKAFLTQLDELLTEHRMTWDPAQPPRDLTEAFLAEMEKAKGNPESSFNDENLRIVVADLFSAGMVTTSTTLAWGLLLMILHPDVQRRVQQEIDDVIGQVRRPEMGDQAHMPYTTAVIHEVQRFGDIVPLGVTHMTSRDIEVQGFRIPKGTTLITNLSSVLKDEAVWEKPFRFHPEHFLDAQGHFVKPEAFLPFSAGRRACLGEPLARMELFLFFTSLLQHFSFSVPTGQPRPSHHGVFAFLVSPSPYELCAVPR

[24] = Half life in human liver microsomes at 1 uM in presence of NADPH by LC-MS/MS analysis; format: ADME, Microsome

**Q.** For `O=C(CCCCCCC(=O)Nc1ccccc1)NOC(c1ccccc1)(c1ccccc1)c1ccccc1`, which CC50 at 72 h [1] is on record?
**A.** > 100 µM

**Q.** What about the Activity [2] of the same compound?
**A.** Non-Toxic

**Q.** What about the Activity (Leishmania infantum [3]) of the same compound?
**A.** 68%

**Q.** What about the Drug metabolism [4] of the same compound?
**A.** Metabolite_Notdetected

**Q.** What about the Activity [5] of the same compound?
**A.** Non-Toxic

**Q.** And the Activity (Leishmania infantum [6])?
**A.** 84%

**Q.** What about the Activity [7] of the same compound?
**A.** Non-Toxic

**Q.** What about the Activity [8] of the same compound?
**A.** Non-Toxic

**Q.** And the solubility [9]?
**A.** < 0.1 mg/mL

**Q.** And the Activity [10]?
**A.** Non-Toxic

**Q.** What about the Activity [11] of the same compound?
**A.** Non-Toxic

**Q.** And the Activity (Leishmania infantum [12])?
**A.** 71%

**Q.** What about the Drug metabolism [13] of the same compound?
**A.** Metabolite_Detected

**Q.** And the pIC50 (Leishmania major)?
**A.** 6.00

**Q.** And the Activity [14]?
**A.** Non-Toxic

**Q.** What about the Activity [15] of the same compound?
**A.** Non-Toxic

**Q.** What about the Activity [16] of the same compound?
**A.** Non-Toxic

**Q.** And the Activity [17]?
**A.** Non-Toxic

**Q.** What about the Activity [18] of the same compound?
**A.** Non-Toxic

**Q.** And the Activity (Leishmania infantum [19])?
**A.** 92%

**Q.** And the Activity [20]?
**A.** Non-Toxic

**Q.** And the Activity [21]?
**A.** Non-Toxic

**Q.** What about the Drug metabolism [22] of the same compound?
**A.** Metabolite_Detected

**Q.** What about the Activity (Leishmania infantum [23]) of the same compound?
**A.** 100%

**Q.** And the pIC50 (Cytochrome P450 2D6)?
**A.** < 4.06

**Q.** What about the half-life at 1 µM [24] of the same compound?
**A.** 8.7 min
